Results on 18 molecules are retold here after patent publication US12084423B2, “Piperlongumine analogues and uses thereof” (BioVentures, LLC, priority 2018, dated 2024).

The structures appear in SMILES notation.

The subject of one experiment is normal WI-38 cells. Description: Cell viability of normal WI-38 cells after 72 hours of compound treatment. To be noted: Homo sapiens, cell viability at 72 hours post-treatment. The experiment is classed as cell-based. As for the experimental part:
(§1) Normal WI-38 cells and IR-induced senescent cells were incubated with increasing concentrations of compounds of Formula (I). At 72 hours post-treatment cell viability was measured and ED50was calculated. Table 1 depicts the ED50 values of the compounds of Formula (I) against normal and IR-induced senescent cells.

Experiment [1] deals with IR-induced senescent cells (IR-SC WI-38). In words: Cell viability of IR-induced senescent WI-38 cells after 72 hours of compound treatment. Type of experiment: cell-based. To be noted: for EC50: Homo sapiens, IR-induced senescent WI-38 cells, cell viability at 72 hours post-treatment; for selective killing of senescent WI38 cells over normal WI38 cells: ionizing radiation (IR, 10 Gy) induced senescent vs normal WI38 cells, viability at 72 hours, percent of control. The protocol: as §1

The term EC50 denotes the concentration needed to bring the measured effect to its halfway point. High values mean a need for much substance, low ones an effect from little substance. As to `COc1cc(/C=C/C(=O)N2CCC=C(F)C2=O)cc(OC)c1OC` [No 1], the EC50 came to 12.1 µM in the experiment on normal WI-38 cells and 15.3 µM in experiment [1].

Consider `COc1cc(/C=C/C(=O)N2CCC=C(Cl)C2=O)cc(OC)c1OC` [No 2], for which the EC50 was 5.3 µM in the experiment with normal WI-38 cells and 0.65 µM in experiment [1].

As to `COc1cc(/C=C/C(=O)N2CCC=C(Br)C2=O)cc(OC)c1OC` [No 3], the concentration for a half-maximal effect (EC50) was found to be 5.4 µM in the experiment with normal WI-38 cells and 0.52 µM in experiment [1].

For `COc1cc(/C=C/C(=O)N2CCC=C(I)C2=O)cc(OC)c1OC` [No 4], the concentration giving a half-maximal response (EC50) in the experiment with normal WI-38 cells was 18.3 µM; in experiment [1], 2.3 µM. Taken in the same sequence, the figures for `COc1cc(/C=C/C(=O)N2CCCC=C(Cl)C2=O)cc(OC)c1OC` [No 5] were 1.7 µM and 0.45 µM. In the same order, the values of `COc1cc(/C=C/C(=O)N2CCCC=C(Br)C2=O)cc(OC)c1OC` [No 6] are 3.6 µM and 0.56 µM. Turning to `COc1cc(/C=C/C(=O)N2OCC=CC2=O)cc(OC)c1OC` [No 7], the half-maximal effective concentration (EC50) with normal WI-38 cells was 47.7 µM; in experiment [1] it was 8 µM. In the same order, the values of `COc1ccc(/C=C/C(=O)N2CCC=C(Cl)C2=O)cc1` [No 8] are 0.35 µM and 0.51 µM. Taken in the same sequence, the figures for `COc1ccc(/C=C/C(=O)N2CCC=C(Br)C2=O)cc1` [No 9] were 1.1 µM and 0.63 µM. `COc1ccc(/C=C/C(=O)N2CCCC=C(Cl)C2=O)cc1` [No 10]: the figures for the EC50 (in the experiment on normal WI-38 cells; in experiment [1]) were 1.5 µM and 0.16 µM, respectively. Taken in the same sequence, the figures for `COc1ccc(/C=C/C(=O)N2CCCC=C(Br)C2=O)cc1` [No 11] were 5.8 µM and 1.3 µM. Taken in the same sequence, the figures for `C=CC(=O)N1OCC=CC1=O` [No 12] were 16.3 µM and 5.7 µM. `O=C1C(Br)=CCCN1C(=O)c1cc2ccccc2oc1=O` [No 13]: the concentration for a half-maximal effect (EC50) was found to be 6.2 µM with normal WI-38 cells and 1.7 µM in experiment [1]. Taken in the same sequence, the figures for `O=C1C(Br)=CCCCN1C(=O)c1cc2ccccc2oc1=O` [No 14] were 5 µM and 4 µM.

As for `O=C1C(Cl)=CCCN1S(=O)(=O)/C=C/c1ccccc1` [No 15], the EC50 in the experiment with normal WI-38 cells was determined as 8.8 µM; in experiment [1], 0.94 µM. Taken in the same sequence, the figures for `O=C1C(Br)=CCCN1S(=O)(=O)/C=C/c1ccccc1` [No 16] were 28.1 µM and 2.8 µM. On to `COc1cc(/C=C/C(=O)N2OCC=CC2=O)cc(OC)c1OC` [XZ-12037, (E)-2-(β-(3,4,5-trimethoxyphenyl)acryloyl)-2H-1,2-oxazin-3(6H)-one], for which, in experiment [1], the “selective killing of senescent WI38 cells over normal WI38 cells” value was “selectively kills senescent WI38 cells over normal WI38 cells”. On the same count and under the same terms, the result for `COc1cc(C(Cl)=CC(=O)N2CCCC=CC2=O)cc(OC)c1OC` [XZ-12089, (E)-β-chloro-1-(β-(3,4,5-trimethoxyphenyl)acryloyl)-1,5,6,7-tetrahydro-2H-azepin-2-one] reads “selectively kills senescent WI38 cells over normal WI38 cells”.
